Legend:
CAF-19 = test: 2D electrophoresis fold change of CAF-19 in primary cultures of human airway myofibroblasts; type: cell-based; conditions: thrombin 20 units/ml, late
Protocol: (§1) dexamethasone at 1 μM (glucocorticoid).

CAF-21 = test: 2D electrophoresis fold change of CAF-21 in primary cultures of human airway myofibroblasts; type: cell-based; conditions: thrombin 20 units/ml
Protocol: as §1

CAF-18 = test: 2D electrophoresis fold change of CAF-18 in primary cultures of human airway myofibroblasts; type: cell-based; conditions: thrombin 20 units/ml
Protocol: as §1

CAF-35 = test: 2D electrophoresis fold change of CAF-35 in primary cultures of human airway myofibroblasts; type: cell-based; conditions: thrombin 20 units/ml, late
Protocol: as §1

CAF-24 = test: 2D electrophoresis fold change of CAF-24 in primary cultures of human airway myofibroblasts; type: cell-based; conditions: thrombin 20 units/ml, early
Protocol: as §1

CAF-15 = test: 2D electrophoresis fold change of CAF-15 in primary cultures of human airway myofibroblasts; type: cell-based; conditions: thrombin 20 units/ml
Protocol: as §1

CAF-25 = test: 2D electrophoresis fold change of CAF-25 in primary cultures of human airway myofibroblasts; type: cell-based; conditions: thrombin 20 units/ml
Protocol: as §1

CAF-34 = test: 2D electrophoresis fold change of CAF-34 in primary cultures of human airway myofibroblasts; type: cell-based; conditions: thrombin 20 units/ml
Protocol: as §1

CAF-2 = test: 2D electrophoresis fold change of CAF-2 in primary cultures of human airway myofibroblasts; type: cell-based; conditions: thrombin 20 units/ml
Protocol: as §1

CAF-33 = test: 2D electrophoresis fold change of CAF-33 in primary cultures of human airway myofibroblasts; type: cell-based; conditions: thrombin 20 units/ml, late
Protocol: as §1

CAF-22 = test: 2D electrophoresis fold change of CAF-22 in primary cultures of human airway myofibroblasts; type: cell-based; conditions: thrombin 20 units/ml, early
Protocol: as §1

CAF-20 = test: 2D electrophoresis fold change of CAF-20 in primary cultures of human airway myofibroblasts; type: cell-based; conditions: thrombin 20 units/ml, early
Protocol: as §1

CAF-12 = test: 2D electrophoresis fold change of CAF-12 in primary cultures of human airway myofibroblasts; type: cell-based; conditions: thrombin 20 units/ml, early
Protocol: as §1

CAF-5 = test: 2D electrophoresis fold change of CAF-5 in primary cultures of human airway myofibroblasts; type: cell-based; conditions: thrombin 20 units/ml
Protocol: as §1

CAF-29 = test: 2D electrophoresis fold change of CAF-29 in primary cultures of human airway myofibroblasts; type: cell-based; conditions: thrombin 20 units/ml
Protocol: as §1

CAF-13 = test: 2D electrophoresis fold change of CAF-13 in primary cultures of human airway myofibroblasts; type: cell-based; conditions: thrombin 20 units/ml
Protocol: as §1

CAF-3 = test: 2D electrophoresis fold change of CAF-3 in primary cultures of human airway myofibroblasts; type: cell-based; conditions: thrombin 20 units/ml
Protocol: as §1

CAF-1 = conditions: thrombin 20 units/ml
Protocol: Using the following procedure, proteins in primary cultures of human airway myofibroblasts were separated by isoelectric focusing followed by SDS-PAGE and analyzed. Different cultures were used, infra, and two different time points at 1 hour (referred to as “early”) and 6 hours (referred to as “late”) were taken. Parts 6.1.1 to 6.1.14 (inclusive) of the procedure set forth below are hereby designated as the “Reference Protocol”.
Primary cultures of human airway myofibroblasts (Hall IP, Kotlikoff M, Am J Physiol January 1995; 268(1 Pt 1): L1-11, Use of cultured airway myocytes for study of airway smooth muscle; Hirst S J, Eur Respir J April 1996; 9(4): 808-20, Airway smooth muscle cell culture: application to studies of airway wall remodeling and phenotype plasticity in asthma.) were treated by one, or a successive combination of, the following:
thrombin at 20 units/ml (Panettieri R A Jr, Hall I P, Maki C S, Murray R K, Am J Respir Cell Mol Biol August 1995; 13(2):205-16, Alpha-Thrombin increases cytosolic calcium and induces human airway smooth muscle cell proliferation).
as §1
theophylline 100 μM (Billington C K, Joseph S K, Swan C, Scott M G, Jobson T M, Hall I P, Am J Physiol March 1999; 276(3 Pt 1):L412-9, Modulation of human airway smooth muscle proliferation by type 3 phosphodiesterase inhibition).
Using the protein expression database, matching protein features present in test primary cultures and in control primary cultures were compared.

Q: What does the source list for thrombin?
A: Fold change following 6 h thrombin, relative to untreated cells (CAF-19): −2.815; Fold change following 1 h thrombin, relative to untreated cells (CAF-21; early): −4.110; Fold change following 6 h thrombin, relative to untreated cells (CAF-21; late): 4.186; Fold change following 1 h thrombin, relative to untreated cells (CAF-18; early): −19.780; Fold change following 6 h thrombin, relative to untreated cells (CAF-18; late): 16.517; Fold change following 6 h thrombin, relative to untreated cells (CAF-35): −3.705; Fold change following 1 h thrombin, relative to untreated cells (CAF-24): −332.863; Fold change following 1 h thrombin, relative to untreated cells (CAF-15; early): −14.045; Fold change following 6 h thrombin, relative to untreated cells (CAF-15; late): 3.037; Fold change following 1 h thrombin, relative to untreated cells (CAF-25; early): −8.122; Fold change following 6 h thrombin, relative to untreated cells (CAF-25; late): −4.750; Fold change following 1 h thrombin, relative to untreated cells (CAF-34; early): 2.741; Fold change following 6 h thrombin, relative to untreated cells (CAF-34; late): 5.005; Fold change following 1 h thrombin, relative to untreated cells (CAF-2; early): 7.832; Fold change following 6 h thrombin, relative to untreated cells (CAF-2; late): 14.593; Fold change following 6 h thrombin, relative to untreated cells (CAF-33): −4.459; Fold change following 1 h thrombin, relative to untreated cells (CAF-22): 1.733; Fold change following 1 h thrombin, relative to untreated cells (CAF-20): −16.512; Fold change following 1 h thrombin, relative to untreated cells (CAF-12): −51.041; Fold change following 1 h thrombin, relative to untreated cells (CAF-5; early): −3.486; Fold change following 6 h thrombin, relative to untreated cells (CAF-5; late): −2.846; Fold change following 1 h thrombin, relative to untreated cells (CAF-29; early): 2.597; Fold change following 6 h thrombin, relative to untreated cells (CAF-29; late): 2.169; Fold change following 1 h thrombin, relative to untreated cells (CAF-13; early): −2.425; Fold change following 6 h thrombin, relative to untreated cells (CAF-13; late): 3.292; Fold change following 1 h thrombin, relative to untreated cells (CAF-3; early): −2.976; Fold change following 6 h thrombin, relative to untreated cells (CAF-3; late): 2.120; Fold change following 1 h thrombin, relative to untreated cells (CAF-1; early): −4.393; Fold change following 6 h thrombin, relative to untreated cells (CAF-1; late): 2.463

Q: What does the source list for `Cn1c(=O)c2[nH]cnc2n(C)c1=O` [theophylline]?
A: Fold change following 6 h thrombin and 6 h theophylline relative to cells treated with thrombin alone (CAF-19; theophylline 100 μM): 2.800; Fold change following 1 h thrombin and 1 h theophylline relative to cells treated with thrombin alone (CAF-18; theophylline 100 μM, early): 26.692; Fold change following 6 h thrombin and 7 h theophylline relative to cells treated with thrombin alone (CAF-18; theophylline 100 μM, late): 2.839; Fold change following 6 h thrombin and 6 h theophylline relative to cells treated with thrombin alone (CAF-35; theophylline 100 μM): 2.182; Fold change following 1 h thrombin and 1 h theophylline relative to cells treated with thrombin alone (CAF-24; theophylline 100 μM): 19.892; Fold change following 1 h thrombin and 1 h theophylline relative to cells treated with thrombin alone (CAF-15; theophylline 100 μM, early): 16.824; Fold change following 6 h thrombin and 7 h theophylline relative to cells treated with thrombin alone (CAF-15; theophylline 100 μM, late): −2.077; Fold change following 1 h thrombin and 1 h theophylline relative to cells treated with thrombin alone (CAF-25; theophylline 100 μM, early): 10.216; Fold change following 6 h thrombin and 6 h theophylline relative to cells treated with thrombin alone (CAF-25; theophylline 100 μM, late): 19.320; Fold change following 1 h thrombin and 1 h theophylline relative to cells treated with thrombin alone (CAF-2; theophylline 100 μM, early): 4.912; Fold change following 6 h thrombin and 6 h theophylline relative to cells treated with thrombin alone (CAF-33; theophylline 100 μM): 2.031; Fold change following 1 h thrombin and 1 h theophylline relative to cells treated with thrombin alone (CAF-22; theophylline 100 μM): −2.096; Fold change following 1 h thrombin and 1 h theophylline relative to cells treated with thrombin alone (CAF-20; theophylline 100 μM): 29.086; Fold change following 1 h thrombin and 1 h theophylline relative to cells treated with thrombin alone (CAF-12; theophylline 100 μM): 39.410; Fold change following 1 h thrombin and 1 h theophylline relative to cells treated with thrombin alone (CAF-5; theophylline 100 μM, early): 2.306; Fold change following 1 h thrombin and 1 h theophylline relative to cells treated with thrombin alone (CAF-13; theophylline 100 μM, early): 4.288; Fold change following 1 h thrombin and 1 h theophylline relative to cells treated with thrombin alone (CAF-1; theophylline 100 μM, early): 3.518; Fold change following 6 h thrombin and 7 h theophylline relative to cells treated with thrombin alone (CAF-1; theophylline 100 μM, late): −2.122

Q: `C[C@@H]1C[C@H]2[C@@H]3CCC4=CC(=O)C=C[C@]4(C)[C@@]3(F)[C@@H](O)C[C@]2(C)[C@@]1(O)C(=O)CO` [Dexamethasone, dexamethasone] was tested. Which “Fold change following 1 h thrombin and 1 h Dexamethasone relative to cells treated with thrombin alone” value (CAF-18; dexamethasone 1 μM, early) did it give?
A: 8.553

Q: And the “Fold change following 6 h thrombin and 7 h Dexamethasone relative to cells treated with thrombin alone” value (CAF-18; dexamethasone 1 μM, late)?
A: −15.966

Q: What about the “Fold change following 1 h thrombin and 1 h Dexamethasone relative to cells treated with thrombin alone” value (CAF-24; dexamethasone 1 μM) of the same compound?
A: 75.754

Q: What about the “Fold change following 1 h thrombin and 1 h Dexamethasone relative to cells treated with thrombin alone” value (CAF-15; dexamethasone 1 μM, early) of the same compound?
A: 4.619

Q: And the “Fold change following 6 h thrombin and 7 h Dexamethasone relative to cells treated with thrombin alone” value (CAF-15; dexamethasone 1 μM, late)?
A: −2.423

Q: What about the “Fold change following 1 h thrombin and 1 h Dexamethasone relative to cells treated with thrombin alone” value (CAF-25; dexamethasone 1 μM, early) of the same compound?
A: 5.245

Q: And the “Fold change following 1 h thrombin and 1 h Dexamethasone relative to cells treated with thrombin alone” value (CAF-22; dexamethasone 1 μM)?
A: −2.909

Q: What about the “Fold change following 1 h thrombin and 1 h Dexamethasone relative to cells treated with thrombin alone” value (CAF-20; dexamethasone 1 μM) of the same compound?
A: 20.554

Q: What about the “Fold change following 1 h thrombin and 1 h Dexamethasone relative to cells treated with thrombin alone” value (CAF-12; dexamethasone 1 μM) of the same compound?
A: 21.529

Q: What about the “Fold change following 6 h thrombin and 7 h Dexamethasone relative to cells treated with thrombin alone” value (CAF-29; dexamethasone 1 μM, late) of the same compound?
A: −2.142

Q: What about the “Fold change following 1 h thrombin and 1 h Dexamethasone relative to cells treated with thrombin alone” value (CAF-13; dexamethasone 1 μM, early) of the same compound?
A: 5.677

Q: And the “Fold change following 1 h thrombin and 1 h Dexamethasone relative to cells treated with thrombin alone” value (CAF-3; dexamethasone 1 μM, early)?
A: 2.438

Q: And the “Fold change following 1 h thrombin and 1 h Dexamethasone relative to cells treated with thrombin alone” value (CAF-1; dexamethasone 1 μM, early)?
A: 4.713
